Results as given in ChEMBL document CHEMBL1151398, “New taxanes from Taxus brevifolia” (1982).

What was measured:
[1] = tested on: KB; assay: Cytotoxicity against human KB cells; type: functional; set-up: concentration or dose not given beside the values
[2] = tested on: Astrocyte; assay: Astrocyte reversal activity in astrocytes; type: functional; details: read-out: ED50 (the source's name)

C=C1[C@@H](O)C[C@H](OC(C)=O)[C@@]2(C)[C@@H](OC(C)=O)[C@H](OC(C)=O)C3=C(C)[C@@H](OC(C)=O)C[C@@H]([C@@H](OC(C)=O)[C@H]12)C3(C)C [DECINNAMOYLTAXININE J]
Activity [1]: 16% | EC50 [2]: 28 µg/mL

CC(=O)O[C@H]1C(=O)[C@@]2(C)[C@H]([C@H](OC(=O)c3ccccc3)[C@]3(O)C[C@H](OC(=O)[C@H](O)[C@@H](NC(=O)c4ccccc4)c4ccccc4)C(C)=C1C3(C)C)[C@]1(OC(C)=O)CO[C@@H]1C[C@@H]2O [PACLITAXEL]
Activity [1]: 31% | EC50 [2]: < 0.01 µg/mL

CC(=O)O[C@H]1C(=O)[C@]2(C)[C@@H](OC(C)=O)C[C@H]3OC[C@@]3(OC(C)=O)[C@H]2[C@H](OC(=O)c2ccccc2)[C@]2(O)C[C@H](OC(=O)[C@H](OC(C)=O)[C@@H](NC(=O)c3ccccc3)c3ccccc3)C(C)=C1C2(C)C
Activity [1]: 16% | EC50 [2]: 0.03 µg/mL

CC(=O)O[C@H]1C[C@H]2OC[C@@]2(OC(C)=O)[C@H]2[C@H](OC(=O)c3ccccc3)[C@]3(O)C[C@H](OC(=O)[C@H](OC(C)=O)[C@@H](NC(=O)c4ccccc4)c4ccccc4)C(C)=C([C@@H](O)C(=O)[C@]12C)C3(C)C
Activity [1]: 16% | EC50 [2]: < 0.01 µg/mL

CC(=O)O[C@@]12CO[C@@H]1C[C@H](O)[C@@]1(C)C(=O)[C@H](O)C3=C(C)[C@@H](O)C[C@@](O)([C@@H](OC(=O)c4ccccc4)[C@H]21)C3(C)C
Activity [1]: 16% | EC50 [2]: 1 µg/mL
